In patent US20110086834A1, “ALKYNYL ALCOHOLS AS KINASE INHIBITORS” (AMGEN INC., priority 2008, published 2011):

target: T1, NIK (Homo sapiens, UniProt Q99558); experiment: homogenous time resolved fluorescence (HTRF) assay for NIK Ki measurement; assay type: biochemical; details: truncated NIK (catalytic domain only), autophosphorylation; 10 nM enzyme; 20, 100, 200 or 500 μM ATP; room temperature, 2 hours; read-out: Ki activity in the homogenous time resolved fluorescence (HTRF) assay for NIK
T1 construct: Both assays utilize a truncated form of NIK containing only the catalytic domain; made in house; host or cells: baculovirus expression system (insect cells implied)
Description: Two formats of biochemical assays are implemented: (1) chemiluminescent (CL) assay for NIK IC50 determination; (2) homogenous time resolved fluorescence (HTRF) assay for NIK Ki measurement. […] The NIK proteins are purified with baculovirus expression system and further biotinylated with N-hydroxysuccinamide biotin ester (Sigma). […] The reaction mixtures are then immobilized on a Streptavidin-coated plate (Pierce). […] For the HTRF assay, 10 nM of enzyme are incubated with compounds in the presence of 20, 100, 200, or 500 μM of ATP in a buffer with 20 mM of Hepes pH7.5, 20 mM of MgCl2, 0.2% of Tween 20 and 1 mM of DTT at room temperature for 2 hours.

T1 sequence (Q99558 400-655 limits assumed): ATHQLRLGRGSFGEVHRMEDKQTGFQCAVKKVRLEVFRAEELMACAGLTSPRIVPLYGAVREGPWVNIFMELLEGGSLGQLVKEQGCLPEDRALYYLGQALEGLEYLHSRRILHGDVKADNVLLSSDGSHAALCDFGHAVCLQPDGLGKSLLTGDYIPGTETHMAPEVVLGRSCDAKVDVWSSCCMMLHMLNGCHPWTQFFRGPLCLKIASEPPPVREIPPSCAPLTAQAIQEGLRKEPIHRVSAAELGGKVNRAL

SMILES	Ki [nM]
CC(O)(C#Cc1ccc2c(c1)N(c1nc(N)ncc1Cl)CC2)c1nc(CO)cs1 (centres unmarked) [Example 35, 4-(1-(2-amino-5-chloropyrimidin-4-yl)indolin-6-yl)-2-(4-(hydroxymethyl)thiazol-2-yl)but-3-yn-2-ol]	1000 to 30000
Cc1cc([C@@](C)(O)C#Cc2ccc3c(c2)N(c2nc(N)ncc2Cl)CC32CCOCC2)no1 (single isomer, unassigned) [Example 211a]	1000 to 30000
Cn1cnc(C(O)C#Cc2ccc3c(c2)N(c2nc(N)ncc2Cl)CC3(C)C)c1 (centres unmarked) [Example 46, 3-(1-(2-amino-5-chloro-4-pyrimidinyl)-3,3-dimethyl-2,3-dihydro-1H-indol-6-yl)-1-(1-methyl-1H-imidazol-4-yl)-2-propyn-1-ol]	< 1000
Cc1ccc(C#CC(C)(O)c2nccs2)cc1Nc1ccncc1 (centres unmarked) [Example 172, 4-(4-Methyl-3-(pyridin-4-ylamino)phenyl)-2-(thiazol-2-yl)but-3-yn-2-ol]	1000 to 30000
COc1cc(C#CC2(O)CCCC2)cc2c1ccn2-c1ccnc(N)n1 [Example 98, 1-(2-(1-(2-aminopyrimidin-4-yl)-4-methoxy-1H-indol-6-yl)ethynyl)cyclopentanol]	< 1000
Cn1cnc([C@H](O)C#Cc2ccc3c(c2)N(c2nc(N)ncc2Cl)CC3(C)C)c1 (single isomer, unassigned) [Example 47, (1R*)-3-(1-(2-amino-5-chloro-4-pyrimidinyl)-3,3-dimethyl-2,3-dihydro-1H-indol-6-yl)-1-(1-methyl-1H-imidazol-4-yl)-2-propyn-1-ol]	< 1000
CNC(=O)C(C)(O)C#Cc1ccc2c(c1)N(c1nc(N)ncc1Cl)CC2(C)C (centres unmarked) [Example 49, 4-(1-(2-amino-5-chloro-4-pyrimidinyl)-3,3-dimethyl-2,3-dihydro-1H-indol-6-yl)-2-hydroxy-N,2-dimethyl-3-butynamide]	< 1000
CC(O)(C#Cc1cccc(Nc2ccncc2C(F)(F)F)n1)c1nccs1 (centres unmarked) [Example 174, 2-(thiazol-2-yl)-4-(6-(3-(trifluoromethyl)pyridin-4-ylamino)pyridin-2-yl)but-3-yn-2-ol]	1000 to 30000
COCCOc1cnc(N)nc1-c1c[nH]c2c(F)cc(C#CC3(O)CCCC3)cc12 [Example 229, 1-((3-(2-Amino-5-(2-methoxyethoxy)-4-pyrimidinyl)-7-fluoro-1H-indol-5-yl)ethynyl)cyclopentanol]	< 1000
C[C@](O)(C#Cc1ccc2c(c1)N(c1ccnc(N)n1)CC2)c1nccs1 [Example 297, (2S)-4-(1-(2-amino-4-pyrimidinyl)-2,3-dihydro-1H-indol-6-yl)-2-(1,3-thiazol-2-yl)-3-butyn-2-ol]	< 1000
Cc1c[nH]c(C(C)(O)C#Cc2ccc3c(c2)N(c2nc(N)ncc2Cl)CC3(C)C)n1 (centres unmarked) [Example 79, 4-(1-(2-Amino-5-chloro-4-pyrimidinyl)-3,3-dimethyl-2,3-dihydro-1H-indol-6-yl)-2-(4-methyl-1H-imidazol-2-yl)-3-butyn-2-ol]	< 1000
CC(O)(C#Cc1ccc2c(c1)N(c1ccnc(N)n1)CC2)c1ncco1 (centres unmarked) [Example 291, 4-(1-(2-amino-4-pyrimidinyl)-2,3-dihydro-1H-indol-6-yl)-2-(1,3-oxazol-2-yl)-3-butyn-2-ol]	< 1000
COc1ccc(C#CC2(O)CCCC2)cc1Nc1nc(N)ncc1Cl [Example 145, 1-((3-((2-amino-5-chloro-4-pyrimidinyl)amino)-4-(methyloxy)-phenyl)ethynyl)-cyclopentanol]	< 1000
O=C(NCCCN1CCOCC1)c1cnccc1Nc1cccc(C#CC2(O)CCCC2)c1 [Example 253, 4-((3-((1-Hydroxycyclopentyl)ethynyl)phenyl)amino)-N-(3-(4-morpholinyl)propyl)-3-pyridinecarboxamide]	1000 to 30000
CN1CCC2(C1)CN(c1nc(N)ncc1Cl)c1cc(C#CC3(O)CCCC3)ccc12 (single isomer, unassigned) [Example 192, 1-(((3S*)-1-(2-Amino-5-chloro-4-pyrimidinyl)-1′-methyl-1,2-dihydrospiro[indole-3,3′-pyrrolidin]-6-yl)ethynyl)cyclopentanol]	< 1000
CC1(C)CN(c2nc(N)ncc2F)c2cc(C#CC3(O)CCCC3)ccc21 [Example 65, 1-((1-(2-amino-5-fluoro-4-pyrimidinyl)-3,3-dimethyl-2,3-dihydro-1H-indol-6-yl)ethynyl)cyclopentanol]	< 1000
CC1(C)CN(c2ccncc2)c2cc(C#C[C@@](C)(O)c3nccs3)ccc21 [Example 306, (2R)-4-(3,3-dimethyl-1-(4-pyridinyl)-2,3-dihydro-1H-indol-6-yl)-2-(1,3-thiazol-2-yl)-3-Butyn-2-ol]	< 1000
Nc1ncc(Cl)c(C2=CC3(CCOCC3)c3ccc(C#CC4(O)CCCC4)cc32)n1 [Example 219, 1-((3-(2-Amino-5-chloro-4-pyrimidinyl)-2′,3′,5′,6′-tetrahydrospiro[indene-1,4′-pyran]-5-yl)ethynyl)cyclopentanol]	< 1000
COCCOc1cnc(N)nc1-c1c[nH]c2ccc(C#CC(C)(O)C(F)(F)F)cc12 (centres unmarked) [Example 261, 4-(3-(2-Amino-5-((2-(methyloxy)ethyl)oxy)-4-pyrimidinyl)-1H-indol-5-yl)-1,1,1-trifluoro-2-methyl-3-butyn-2-ol]	1000 to 30000
Cc1cc(C(C)(O)C#Cc2ccc3c(c2)N(c2nc(N)ncc2Cl)CC32CCOC2)no1 (single isomer, unassigned) [Example 204, 4-((3S*)-1′-(2-Amino-5-chloro-4-pyrimidinyl)-1′,2′,4,5-tetrahydrospiro[furan-3,3′-indol]-6′-yl)-2-(5-methyl-3-isoxazolyl)-3-butyn-2-ol]	< 1000

Further lines, results first:

Ki [nM]	SMILES
< 1000	CC(O)(C#Cc1ccc2c(c1)N(c1ccnc(N)n1)CC2)c1nccs1 (centres unmarked) [Example 276, 4-(1-(2-Amino-4-pyrimidinyl)-2,3-dihydro-1H-indol-6-yl)-2-(1,3-thiazol-2-yl)-3-butyn-2-ol]
< 1000	COc1cc(C#CC2(O)CCCC2)cc2c1c(CO)cn2-c1nc(N)ncc1F [Example 103, 1-(2-(1-(2-amino-5-fluoropyrimidin-4-yl)-3-(hydroxymethyl)-4-methoxy-1H-indol-6-yl)ethynyl)cyclopentanol]
< 1000	Nc1ncc(Cl)c(N2CCc3ccc(C#CC4(O)CCCC4)cc32)n1 [Example 16, 1-(2-(1-(2-amino-5-chloropyrimidin-4-yl)indolin-6-yl)ethynyl)cyclopentanol]
< 1000	Cc1ccc(C(C)(O)C#Cc2ccc3c(c2)N(c2ccnc(N)n2)CC3)s1 (centres unmarked) [Example 280, 4-(1-(2-Amino-4-pyrimidinyl)-2,3-dihydro-1H-indol-6-yl)-2-(5-methyl-2-thienyl)-3-butyn-2-ol]
< 1000	CC(O)(C#Cc1ccc2[nH]nc(-c3ccns3)c2c1)c1nccs1 (centres unmarked) [Example 83, 4-(3-(isothiazol-5-yl)-1H-indazol-5-yl)-2-(thiazol-2-yl)but-3-yn-2-ol]
< 1000	C[C@@](O)(C#Cc1ccc2c(c1)N(c1nc(N)ncc1Cl)CC21COC1)c1nccs1 (single isomer, unassigned) [Example 82]
< 1000	CC(O)(C#Cc1ccc(CN2CCOCC2)c(Nc2nc(N)ncc2Cl)c1)c1nccs1 (centres unmarked) [Example 157, 4-(3-(2-Amino-5-chloropyrimidin-4-ylamino)-4-(morpholinomethyl)phenyl)-2-(thiazol-2-yl)but-3-yn-2-ol]
< 1000	CC(O)(C#Cc1ccc2c(c1)N(c1ccnc(N)n1)CC2)c1ccn[nH]1 (centres unmarked) [Example 77, 4-(1-(2-Amino-4-pyrimidinyl)-2,3-dihydro-1H-indol-6-yl)-2-(1H-pyrazol-5-yl)-3-butyn-2-ol]
< 1000	CCc1csc(C(C)(O)C#Cc2ccc3c(c2)N(c2nc(N)ncc2Cl)CC3)c1 (centres unmarked) [Example 22, 4-(1-(2-amino-5-chloropyrimidin-4-yl)indolin-6-yl)-2-(4-ethylthiophen-2-yl)but-3-yn-2-ol]
< 1000	CC(O)(C#Cc1ccc2c(c1)N(c1nc(N)ncc1Cl)CC2(CO)CO)c1nccs1 (centres unmarked) [Example 60, 4-(1-(2-amino-5-chloro-4-pyrimidinyl)-3,3-bis(hydroxymethyl)-2,3-dihydro-1H-indol-6-yl)-2-(1,3-thiazol-2-yl)-3-butyn-2-ol]
< 1000	C[C@@](O)(C#Cc1ccc2c(c1)N(c1nc(N)ncc1Cl)CC21CCOCC1)c1nccs1 (single isomer, unassigned) [Example 209]
< 1000	C[C@@](O)(C#Cc1ccc2c(c1)N(c1nc(N)ncc1Cl)C[C@]21CCOC1)c1nccs1 (stereo in doubt) [Example 202, (2R)-4-((3S*)-1′-(2-Amino-5-chloro-4-pyrimidinyl)-1′,2′,4,5-tetrahydrospiro[furan-3,3′-indol]-6′-yl)-2-(1,3-thiazol-2-yl)-3-butyn-2-ol]
< 1000	CC(O)(C#Cc1ccc2c(c1)N(c1nc(N)ncc1Cl)CC2(C)C)c1ncco1 (centres unmarked) [Example 305, 4-(1-(2-Amino-5-chloro-4-pyrimidinyl)-3,3-dimethyl-2,3-dihydro-1H-indol-6-yl)-2-(1,3-oxazol-2-yl)-3-Butyn-2-ol]
< 1000	CN(c1cc(C#CC(C)(O)c2nccs2)ccc1OC1CCOCC1)c1nc(N)ncc1Cl (centres unmarked) [Example 165, 4-(3-((2-amino-5-chloropyrimidin-4-yl)(methyl)amino)-4-(tetrahydro-2H-pyran-4-yloxy)phenyl)-2-(thiazol-2-yl)but-3-yn-2-ol]
< 1000	C[C@@](O)(C#Cc1ccc2ncc(-c3nc(N)ncc3Cl)n2c1)c1nccs1 [Example 296, (2R)-4-(3-(2-amino-5-chloro-4-pyrimidinyl)imidazo[1,2-a]pyridin-6-yl)-2-(1,3-thiazol-2-yl)-3-butyn-2-ol]
